Reference: patent publication EP4635500A1, “THERAPEUTIC AGENT FOR BACTERIAL INFECTION” (Sumitomo Pharma Co., Ltd., priority 2022, dated 2024)
Read-outs that look alike come from different tables or passages of the source.

How the values were obtained:
[1] = system: Morganella morganii; test: MIC and MBC, broth microdilution (Example 4, Table 3); assay type: cell-based; settings: Morganella morganii CDC-57 (NDM-1)
[2] = system: P. aeruginosa; test: Systemic infection lethal mouse model, ED50 (Example 15, Table 33); settings: for Survival rate: 7 days after infection; for ED50: Pseudomonas aeruginosa, in Mus musculus, sc
Method: The test strains on the agar medium were suspended in saline and adjusted to a Klett unit of about 200 using a Klett Photoelectric Colorimeter. […] Male ICR mice were inoculated intraperitoneally with 0.2 mL of the bacterial suspension. Two hours after the inoculation, saline or a solution for administering the agent of each concentration was administered subcutaneously to the mice in a single dose. The number of mice that survived from Day 1 to Day 7 after infection was recorded.

[3] = system: A. baumannii; test: MIC, broth microdilution, 6 strains (Example 6, Table 7); assay type: cell-based; settings: Acinetobacter baumannii, Carbapenem-resistant, read-out: MIC
[4] = system: Serratia marcescens; test: MIC, broth microdilution, standard strains and Japanese clinical isolates (Example 5, Table 4); assay type: cell-based
[5] = system: E. coli; test: MIC, Gram-negative bacteria clinically isolated in the United States (Example 8, Table 16); assay type: cell-based; settings: E. coli (80 strains) isolated in the United States, Compound A µg/mL in parentheses
[6] = system: Porphyromonas spp.; test: MIC, agar dilution, anaerobic bacteria (Example 9, Tables 19, 24); assay type: cell-based; settings: for MIC: (n)=Compound A µg/mL, 0=Compound A alone antibacterial
[7] = system: Enterobacter aerogenes; test: MIC and MBC, broth microdilution (Example 4, Table 3); assay type: cell-based; settings: Klebsiella aerogenes
[8] = system: A. baumannii; test: MIC, Gram-negative bacteria clinically isolated in the United States (Example 8, Table 16); assay type: cell-based; settings: Acinetobacter baumannii; A. baumannii (80 strains) isolated in the United States; Compound A µg/mL in parentheses
[9] = system: Gram-positive bacteria; test: MIC, agar dilution, anaerobic bacteria (Example 9, Tables 21, 26); assay type: cell-based
[10] = system: E. coli ATCCBAA-2469 producing NDM-1; test: Systemic infection lethal mouse model, ED50 (Example 14, Table 32); settings: 7 days after infection
Method: (§1) The test strains on the agar medium were suspended in saline and adjusted to a Klett unit of about 200 using a Klett Photoelectric Colorimeter. […] Male ICR mice were inoculated intraperitoneally with 0.2 mL of the bacterial suspension. Two hours after the inoculation, saline or a solution for administering the agent at each concentration was administered subcutaneously to the mice in a single dose. The number of mice that survived from Day 1 to Day 7 after infection was recorded.

[11] = system: K. pneumoniae ATCCBAA-2344 producing KPC-2; test: Systemic infection lethal mouse model, ED50 (Example 14, Table 31); settings: 7 days after infection
Method: as §1

[12] = system: carbapenemase-producing Enterobacteriaceae (CPE); test: Bactericidal activity by bactericidal curve method (Example 10); assay type: cell-based, E. coli, Klebsiella pneumoniae; settings: MEPM ≥1 x MIC; within 1 to 2 hours after culture; all four strains
[13] = mouse, in vivo
[14] = system: Klebsiella aerogenes; test: MIC, broth microdilution, standard strains and Japanese clinical isolates (Example 5, Table 4); assay type: cell-based; settings: carbapenemase genes -
[15] = system: Serratia marcescens; test: MIC and MBC, broth microdilution (Example 4, Table 3); assay type: cell-based; settings: Serratia marcescens CDC-124 (SME-3)
[16] = table at the place of Table 24, Prevotella spp.

C[C@@H](O)[C@H]1C(=O)N2C(C(=O)O)=C(S[C@@H]3CN[C@H](C(=O)N(C)C)C3)[C@H](C)[C@H]12 [MEPM, meropenem]
≤ 0.125 µg/mL: MIC50 ([5]; Escherichia coli) | MIC90 ([5]; Escherichia coli)
10%: Survival rate ([2]; CDC-90 (Serine), Dose 30 mg/kg) | Survival rate ([10]; Dose 10 mg/kg) | Survival rate ([11]; Dose 10 mg/kg) | Survival rate ([11]; Dose 30 mg/kg) | Survival rate ([11]; Dose 60 mg/kg)
54.8 mg/kg: ED50 ([2]; 2 h, read-out: ED50 of MEPM (95% confidence intervals), CDC-90 (Serine), single subcutaneous dose 2 hours after infection, with cilastatin at 100 mg/kg) | ED50 ([2]; read-out: ED50 of MEPM, P. aeruginosa CDC-90 (KPC-5), single s.c. dose, with cilastatin 100 mg/kg)
90%: Survival rate ([2]; CDC-90 (Serine), Dose 100 mg/kg)
≥ 40%: %fT > 8 µg/mL [13]
8 µg/mL: MBC [1] | MIC [1] | MBC [7]
0.06 µg/mL: MIC50 [9] | MIC ([9]; Finegoldia magna, ATCC29328) | MIC50 ([9]; Gram-positive bacteria, read-out: MIC50) | MIC ([9]; KUB No. 3014 Atropobium rimae, read-out: MIC)
100%: Survival rate ([2]; CDC-90 (Serine), Dose 300 mg/kg)
64 µg/mL: MIC ([3]; A. baumannii strain with AMR gene ADC-25, OXA-23, OXA-66, TEM-ID) | MIC ([3]; A. baumannii strain with AMR gene ADC-25, XA-23, OXA-66, strA, strB, sul2, TEM-1D) | MIC90 [8] | MIC [15]
≤0.03 to 4 µg/mL: MICrange ([9]; Gram-positive bacteria)
3 log10: reduction in the number of bacteria compared to preculture level [12]
60%: Survival rate ([2]; CDC-110 (Metallo), Dose 200 mg/kg) | Survival rate ([2]; CDC-110 (Metallo), Dose 300 mg/kg)
≤0.125 to 16 µg/mL: MICrange [5]
30%: Survival rate ([2]; CDC-110 (Metallo), Dose 150 mg/kg)
16 µg/mL: MIC ([3]; A. baumannii strain with AMR gene OXA-23, OXA-69, TEM-1D)
≤ 0.03 µg/mL: MIC ([6]; KUB No. 6663 Porphyromonas gingivalis) | MIC ([6]; KUB No. 6666 Porphyromonas gingivalis) | MIC ([6]; KUB No. 6667 Porphyromonas gingivalis) | MIC ([6]; KUB No. 6668 Porphyromonas gingivalis) | MIC ([6]; KUB No. 6669 Porphyromonas gingivalis) | MIC ([6]; KUB No. 6670 Porphyromonas gingivalis) | MIC ([6]; KUB No. 6671 Porphyromonas gingivalis) | MIC ([6]; KUB No. 6672 Porphyromonas gingivalis) | MIC ([6]; KUB No. 6673 Porphyromonas gingivalis) | MIC ([6]; KUB No. 6674 Porphyromonas gingivalis) | MIC ([6]; KUB No. 6676 Porphyromonas gingivalis) | MIC ([6]; KUB No. 6677 Porphyromonas gingivalis) | MIC ([6]; KUB No. 6678 Porphyromonas gingivalis) | MIC ([6]; KUB No. 6679 Porphyromonas gingivalis) | MIC ([6]; KUB No. 6680 Porphyromonas gingivalis) | MIC ([6]; KUB No. 6681 Porphyromonas gingivalis) | MIC ([6]; KUB No. 6682 Porphyromonas gingivalis) | MIC ([6]; KUB No. 6683 Porphyromonas gingivalis) | MIC ([6]; KUB No. 6684 Porphyromonas gingivalis) | MIC ([6]; KUB No. 6685 Porphyromonas gingivalis) | MIC ([6]; KUB No. 6686 Porphyromonas gingivalis) | MIC ([6]; KUB No. 6687 Porphyromonas gingivalis) | MIC ([6]; Porphyromonas, KUB No. 6665 Porphyromonas assaccharolytica) | MIC50 ([6]; Porphyromonas, n=26, combination: Compound A at 4 ug/mL, read-out: MIC50) | MIC90 ([6]; Porphyromonas, n=26, combination: Compound A at 4 ug/mL, read-out: MIC90) | MIC ([9]; Cutibacterium acnes, ATCC11827) | MIC ([9]; Olsenella uli) | MIC ([9]; Peptoniphilus asaccharolyticus, ATCC14963) | MIC ([9]; Peptoniphilus indolicus)
4 µg/mL: MIC [7] | MIC ([9]; ATCCBAA1803, KUB No. 3511 Clostridioides difficile ATCC BAA-1803, read-out: MIC) | MIC ([9]; ATCCBAA1870, KUB No. 3385 Clostridioides difficile ATCC BAA-1870, read-out: MIC)
0.12 µg/mL: MIC ([9]; KUB No. 3013 Bulleidia extructa, read-out: MIC) | MIC ([9]; Schaalia odontolytica, ATCC17929, KUB No. 3488 Actinomyces odontolyticus ATCC 17929, read-out: MIC) | MIC ([14]; KUB3615 Klebsiella aerogenes Clinical isolate)
0.03 µg/mL: MIC ([6]; KUB No. 6688 Porphyromonas gingivalis)
≤0.03 µg/mL: MIC50 [6, 16] | MIC90 [6, 16] | MICrange [6, 16]
0%: Survival rate ([2]; CDC-90 (Serine), Dose 10 mg/kg) | Survival rate ([2]; CDC-110 (Metallo), Dose 100 mg/kg) | Survival rate ([10]; Dose 30 mg/kg) | Survival rate ([10]; Dose 60 mg/kg)
0.5 µg/mL: MIC ([9]; Eggerthella lenta, ATCC43055)
50%: Survival rate ([11]; Dose 100 mg/kg)
2 µg/mL: MIC ([4]; KUB3169 Serratia marcescens Clinical isolate, carbapenemase genes Unidentified, read-out: MIC) | MIC ([4]; KUB3170 Serratia marcescens Clinical isolate, carbapenemase genes Unidentified) | MIC ([4]; KUB3171 Serratia marcescens Clinical isolate, carbapenemase genes -) | MIC50 [8] | MIC90 [9] | MIC ([9]; ATCC43255, KUB No. 3518 Clostridioides difficile ATCC 43255, read-out: MIC) | MIC ([9]; ATCC700057, KUB No. 2978 Clostridioides difficile ATCC 700057, read-out: MIC) | MIC90 ([9]; Gram-positive bacteria, read-out: MIC90) | MIC ([9]; Peptostreptococcus anaerobius) | MIC ([14]; KUB3614 Klebsiella aerogenes Clinical isolate)
218 mg/kg: ED50 ([2]; 2 h, read-out: ED50 of MEPM (95% confidence intervals), CDC-110 (Metallo), single subcutaneous dose 2 hours after infection, with cilastatin at 100 mg/kg) | ED50 ([2]; read-out: ED50 of MEPM, P. aeruginosa CDC-110 (VIM-2), single s.c. dose, with cilastatin 100 mg/kg)
80%: Survival rate ([10]; Dose 100 mg/kg)
